Assay results reported in patent publication US20150099721A1, “TREATING CANCER WITH HSP90 INHIBITORY COMPOUNDS” (Synta Pharmaceuticals Corp., priority 2012, published 2015).
Entries after “also recorded” stand apart in the source; their conditions may differ.

Key:
[1] = test system: CD74-ROS; assay: Western blot of ROS phosphorylation in Ba/F3 cells expressing CD74-ROS; format: cell-based; settings: 24 hr, 100 nM (FIG. 1D)
Description: (§1) Cells, treated with compound for 24 hr, were lysed in RIPA buffer (CST, Danvers, Mass., USA) on ice and clarified by centrifugation. Equal amounts of proteins were resolved by SDS-PAGE and immunoblotted with indicated antibodies (CST). The antigen-antibody complex was visualized and quantitated using an Odyssey system (LI-COR, Lincoln, Nebr., USA).
(§2) Chromosomal rearrangements involving ROS kinase have been reported in several tumor types, including non-small cell lung cancer (NSCLC) and glioblastoma. […] See, e.g., Ting-Lei Gu et al, PLoS One. 2011; 6(1):e15640. To determine if inhibition of Hsp90 affects the activity of ROS fusion kinases and viability of cells driven by such fusions, SLC34A2-ROS expressing HCC78 NSCLC cells were treated with ganetespib and both viability and protein activity was assessed. […] See, e.g., Chenguang Li et al, PLoS One. 2011; 6(11):e28204. […] To determine if ganetespib affects the constitutive activity of ROS, HCC78 cells were treated with ganetespib for 24 hr and the phosphorylation of ROS was assayed by Western blot. […] In addition to SLC34A2-ROS, other ROS chimeras have been identified including CD74-ROS and FIG-ROS. Show in FIG. 1D, Ba/F3 cells stably expressing either CD74-ROS or FIG-ROS were treated with ganetespib for 24 hr and activity of ROS was determined by Western blot.

[2] = test system: SLC34A2-ROS expressing HCC78 NSCLC cells; assay: Cell viability (Cell Titer-Glo) in HCC78 cells; format: cell-based, human; settings: for IC50: Homo sapiens, 72 hr exposure (FIG. 1A), read-out: IC50, loss of HCC78 cell viability; for cells killed by single agent: drug on its own (FIG. 1C)
Experimental: (§3) Human HCC78 NSCLC cells and human TPC-1 thyroid cancer cells were obtained from Dr. Steve Morris (St. Jude's) and grown in RPMI in the presence of fetal bovine serum (10%), 2 mM L-glutamine and antibiotics (100 IU/ml penicillin and 100 μg/ml streptomycin) purchased from Sigma Aldrich. Cells were maintained at 37° C., 5% CO2 atmosphere.
(§4) Cell viability was measured using the Cell Titer-Glo assay (Promega). In brief, cells were plated in 96-well plates in triplicate at optimal seeding density (determined empirically for each cell line) and incubated at 37° C., 5% CO2 atmosphere for 24 hr prior to the addition of drug or vehicle (0.3% DMSO) to the culture medium. At the end of the assay, Cell Titer-Glow was added to the wells per manufactures recommendation, shaken for two minutes and incubated for 10 minutes at room temperature. Luminescence (0.1 sec) was measured with a Victor II microplate reader (Perkin Elmer) and the resulting data were used to calculate cell viability, normalized to vehicle control.
as §2

[3] = test system: cancer cells driven by oncogenic ROS1 fusion; assay: Viability of cancer cells driven by oncogenic ROS1 fusion (FIGS. 3-4); format: cell-based; settings: FIG. 3, FIG. 4
Experimental: as §4

[4] = test system: ROS (SLC34A2-ROS) in HCC78 cells; assay: Western blot of ROS phosphorylation in HCC78 cells; format: cell-based, human; settings: 24 hr, 250 nM (FIG. 1B)
Description: as §1, §2

[5] = test system: ROS1 fusion protein; assay: Degradation of ROS1 fusion protein (FIG. 5); format: cell-based
Description: as §1

[6] = test system: CCDC6-RET; assay: Western blot in TPC-1 cells (CCDC6-RET, ERK, PARP); format: cell-based, human; settings: 24 hr (FIG. 2)
Experimental: as §3, §1
(§5) Recently, fusions of the RET kinase have also been detected in NSCLC. See, e.g., Fei Li et al, Cell Research (2012), 1-4. One such fusion, CCDC6-RET, was determined to be present in ˜1% of lung adenocarcinomas from never smokers. To investigate whether ganetespib modulates the activity and stability of RET fusions, CCDC6-RET expressing TPC-1 thyroid cancer cells were used as a model.

[7] = test system: FIG-ROS; assay: Western blot of ROS phosphorylation in Ba/F3 cells expressing FIG-ROS; format: cell-based; settings: 24 hr, 100 nM (FIG. 1D)
Description: as §1, §2

[8] = test system: CCDC6-RET expressing TPC-1 thyroid cancer cells; assay: Cell viability in TPC-1 cells; format: cell-based, human; settings: 72 hr (FIG. 2A, FIG. 7)
Experimental: as §3, §4, §5

Row | SMILES | activity (phosphorylation) of CD74-ROS [1] | IC50 [2] | cells killed by single agent [2] | viability of cancer cells driven by oncogenic ROS1 fusion [3] | phosphorylation of ROS [4] | degradation of ROS1 fusion protein [5] | ERK activity [6] | PARP cleavage [6] | degradation of total and phosphorylated CCDC6-RET [6] | activity (phosphorylation) of FIG-ROS [7] | cell death / viability of TPC-1 cells [8]
1 | CC(C)c1cc(-c2nnc(O)n2-c2ccc3c(ccn3C)c2)c(O)cc1O [ganetespib, 3-(2,4-DIHYDROXY-5- ISOPROPYL-PHENYL)-4-(1- METHYL-INDOL-5-YL)-5- HYDROXY-[1,2,4] TRIAZOLE (GANETESPIB)] | effectively reduces the activity | 17 nM | approximately 50% | inhibited viability; also recorded: significantly inhibited the viability of more cancer cells | significant dephosphorylation of ROS | leads to degradation of ROS1 fusion protein | deactivation of ERK | cleavage of the pro-apoptotic protein PARP | potently induced the degradation | effectively reduces the activity | resulting in cell death; also recorded: significantly inhibited the viability
2 | C[C@@H](Oc1cc(-c2cnn(C3CCNCC3)c2)cnc1N)c1c(Cl)ccc(F)c1Cl [crizotinib, reference compound] | – | 1040 nM | approximately 50% | inhibited viability | – | – | – | – | – | – | –
